# Measurements taken from patent US20080085879A1, “METHODS OF TREATING ESTROGEN-RESPONSIVE CONDITIONS BY ORPHAN NUCLEAR RECEPTOR ACTIVATION” (University of Pittsburgh - Of the Commonwealth System of …, priority 2006, published 2008).
# Entries after “also recorded” stand apart in the source; their conditions may differ.
# How the values were obtained:
# [1] = tested on: estrogen sulfotransferase (EST); assay: EST mRNA expression in mouse tissues (Northern blot, real-time PCR) after agonist treatment; type: in vivo; details: for EST mRNA expression in liver: wild-type mice, compared to control (DMSO)
# Experimental: Transgenic mice, having a mixed background of C57BL/6J and 129/SvImJ, were created expressing activated LXRa in the liver under the control of the fatty acid binding protein (FABP) promoter. (FIG. 1) EST levels in liver cells of the transgenic mice were compared to wild-type mice using Northern blot analysis and real-time PCR, as described in Gong, H. et al. Mol. Endocrinol. 20:279-290 (2006) and Zhou, J. et al. J Biol Chem. 281: 15013-15020 (2006), respectively.
# Wild-type mice were treated with LXR agonists TO1317 (T0901317) or 22(R)-hydroxycholesterol (FIG. 1a), and EST levels were compared to DMSO-treated control mice as described above.
# LXRα and LXRβ double knockout (LXR DKO) mice were created as described in Peet, D. J. et al., Cell 93:693-704 (1998).
# [2] = tested on: uterine epithelial proliferation; assay: Uterine estrogen response: epithelial proliferation by BrdU labeling in ovariectomized mice; type: in vivo, mouse
# [3] = tested on: estrogen-responsive uterine genes (Pgr, c-fos, Igf-1, Txnip); assay: Estrogen-responsive uterine gene expression by real-time PCR in ovariectomized mice; type: in vivo, mouse
# LXRα = target: T1, LXRα (Mus musculus, UniProt Q9Z0Y9); assay: mEst promoter luciferase reporter assay in HepG2 cells co-transfected with LXRα; type: cell-based; details: TO1317 10 μM 24 h
# T1 construct: expressed in transfected cells; host or cells: HepG2
# T1 sequence (Q9Z0Y9 1-445): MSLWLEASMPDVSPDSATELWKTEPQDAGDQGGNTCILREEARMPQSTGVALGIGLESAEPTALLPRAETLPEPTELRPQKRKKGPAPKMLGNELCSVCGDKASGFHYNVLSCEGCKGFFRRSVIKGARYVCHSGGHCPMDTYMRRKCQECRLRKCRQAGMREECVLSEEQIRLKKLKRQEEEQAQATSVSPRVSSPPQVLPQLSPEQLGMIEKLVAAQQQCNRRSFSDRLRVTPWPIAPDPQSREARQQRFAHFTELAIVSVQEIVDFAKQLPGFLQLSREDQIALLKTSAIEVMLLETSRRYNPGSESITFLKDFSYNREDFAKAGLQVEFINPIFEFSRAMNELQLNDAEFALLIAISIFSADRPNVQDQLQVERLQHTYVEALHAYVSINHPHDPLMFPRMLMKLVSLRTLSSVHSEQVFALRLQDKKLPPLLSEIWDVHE
# Source text: (§1) The 4.2-kb (−4164 bp to +46 bp) 5′ regulatory sequences of the mEst gene were cloned by PCR using a template of mEst-containing bacterial artificial chromosome (BAC) clone (ID RP24-571N6) from the Children's Hospital Oakland Research Institute BACPAC Resource Center (Oakland, Calif.). Deletion mutants were generated by PCR-mediated mutagenesis. HepG2 cells were transfected with the reporter constructs and LXRα expression vector in 48-well plates as previously described . Gong, H. et al., Mol. Endocrinol. 20:279-290 (2006) When necessary, cells were treated with TO1317 (10 μM) for 24 h prior to luciferase assay. The transfection efficiency was normalized against the β-gal activities from a co-transfected CMX-β gal vector. The hydrodynamic liver transfection was performed as we previously described. Zhou, J. et al. J Biol Chem. 281: 15013-15020 (2006). EMSA were performed using in vitro transcribed and translated proteins as described previously. Saini, S. P. et al., Hepatology 41:497-505 (2005)
# mouse LXRα = target: T2, mouse LXRα (Mus musculus, UniProt Q9Z0Y9); assay: CHIP assay of HA-LXRα recruitment onto the Est promoter in transfected mouse liver; type: in vivo; details: wild type mouse liver, TO1317 50 mg/kg i.p.
# T2 construct: expressed in transfected cells; host or cells: liver of wild type mice (hydrodynamic transfection in vivo)
# T2 sequence (Q9Z0Y9 1-445): T1 sequence (Q9Z0Y9 1-445)
# Source text: Zhou, J. et al. J Biol Chem. 281: 15013-15020 (2006). […] Zhou, J. et al. J Biol Chem. 281: 15013-15020 (2006).
# [4] = tested on: mEst 2.1-kb natural promoter; assay: Hydrodynamic liver transfection of Est promoter reporter; type: in vivo
# Source text: as §1
# [5] = MCF-7/VEGF breast tumor xenograft in ovariectomized nude mice; type: in vivo, mouse
# Source text: (§2) Ovariectomized nude mice were purchased from Taconic (Germantown, N.Y.). ER-positive and estrogen responsive breast cancer MCF-7 cells were used. The MCF-7 cells were MCF-7/VEGF cells that overexpress the vascular endothelial growth factor (VEGF), rather than parent MCF-7 cells. […] Guo, P. et al., Cancer Res. 63:4684-4691 (2003).
# (§3) MCF-7 breast tumors were established in the mammary fat pads of ovariectomized female nude mice as described previously. Briefly, 1×10^7 of MCF-7/VEGF cells were inoculated into the mammary fat pads of 8-week old ovariectomized female nude mice that were implanted with E2 pellets (0.72 mg/60-day release) or placebo pellets (Innovative Research of America, Sarasota, Fla.). The E2-treated mice were randomly divided into two groups, with one group receiving daily treatment of TO1317 (15 mg/kg by gavage) and the other receiving vehicle. The volumes of the tumors were measured using a caliper every five days. Mice were labeled with BrdU 30 min prior to sacrificing. The serum concentrations of E2 were measured using the ACTIVE® ESTRADIOL EIA kit (Diagnostic Systems Laboratories, Webster, Tex.).
# (§4) Breast tumors were established as described in Example 4, using MCF-7/VEGF cells.
# MCF-7/VEGF cells = assay: as above; type: in vivo, mouse
# Source text: as §2, §3, §4
# EST = EST mRNA expression in primary human hepatocytes (RT-PCR); type: cell-based; details: compared to DMSO control
# Experimental: Expression of EST MRNA was measured as described above in human hepatocytes and in human breast cancer line MCF7.
# CYP3A (PXR target gene) = assay: CYP3A expression in mouse liver (Northern blot); type: in vivo
# uterus = assay: Uterotropic bioassay; type: in vivo, mouse; details: wild type female mice, E2 5 μg/kg s.c. daily for 3 d
# Experimental: Ovariectomized wild type and VP-LXRα transgenic females were subjected to uterine estrogen response measurements that include epithelial proliferation by BrdU labeling and estrogen responsive gene expression by real-time PCR. Five-week old virgin females were subjected to ovariectomies. Seven days after the surgery, mice were given a single s.c. injection of 17β-estradiol (E2) (25 μg/mouse). 18 h after the E2 injection, mice were given a single i.p. injection of bromodeoxyuridine (BrdU) (60 mg/kg) and sacrificed 2 h after. One uterine horn was harvested for histology and measurement of cell proliferation by BrdU immunostaining (Xie, W., et al., Mol. Endocrinol. 11: 1766-1781 (1997)) and the other was harvested for RNA extraction and gene expression analysis by real-time PCR. In the uterotropic bioassay, 3-week-old virgin female mice received daily s.c. injections of vehicle or E2 (5 μg/kg) for 3 d. Mice were then sacrificed 24 h after the last E2 dose and the uteri were dissected, weighed, and photographed. When necessary, mice were subjected to daily treatment of TO1317 (50 mg/kg, i.p. injection) starting 3 d prior to the E2 treatment and continued until the completion of the experiments.
# [6] = ovariectomized wild type female mice
structure (smiles),measurement,setting,value
O=S(=O)(c1ccccc1)N(CC(F)(F)F)c1ccc(C(O)(C(F)(F)F)C(F)(F)F)cc1 [TO1317],EST levels in LXR DKO mice,"[1]; LXRα and LXRβ double knockout mice, compared with control mice",no increase
same,EST expression in testis,[1]; testis of male mice,not observed
same,EST mRNA expression in liver,[1],up-regulated
same,TO1317 effect on the E2 response (BrdU labeling) in EST null mice,[2]; EST null mice,abolished
same,E2 effect on uterine BrdU labeling,"[2]; ovariectomized wild type mice, TO1317 50 mg/kg i.p. daily pre-treatment, E2 25 μg/mouse s.c.",compromised
same,basal proliferation (BrdU labeling),"[2]; treatment alone, in the absence of E2",little effect
same,TO1317 effect on E2-responsive gene expression in EST null mice,"[3]; EST null mice, uterus",abolished
same,"E2 effects on the expression of E2-responsive genes (Pgr, c-fos, Igf-1, Txnip)","[3]; TO1317-treated ovariectomized wild type mice, uterus",abolished
same,activation of mutant variant of tk-Est/DR-4 reporter,LXRα; LXRα,not
same,activation of tk-Est/DR-4 reporter,LXRα; LXRα,activated
same,activation of 4.2-kb mEst promoter luciferase reporter,LXRα; wild type LXRα,activated
same,recruitment of HA-LXRα onto the Est promoter (CHIP),mouse LXRα,resulted in the recruitment
same,activation of 2.1-kb natural Est promoter transfected into mouse liver,[4],activated
same,hepatic EST expression in nude mice,[5]; TO1317-treated vs mock-treated nude mice (data not shown),significantly induced
same,circulating E2 levels,"[5]; tumor bearing mice, TO1317 15 mg/kg by gavage daily",decreased
same,tumor cell BrdU labeling index,"MCF-7/VEGF cells; E2-induced tumors, TO1317 15 mg/kg by gavage daily",decreased
same,E2-enhanced tumor growth (tumor volume),"MCF-7/VEGF cells; E2 pellets, TO1317 15 mg/kg by gavage daily vs vehicle, 15 mg/kg",inhibited; also recorded: significantly attenuated
CC(C)CC[C@@H](O)[C@@H](C)[C@H]1CC[C@H]2[C@@H]3CC=C4C[C@@H](O)CC[C@]4(C)[C@H]3CC[C@]12C [22(R)-hydroxycholesterol],EST mRNA expression in liver,[1],up-regulated
C[C@@H]1C[C@H]2[C@@H]3CCC4=CC(=O)C=C[C@]4(C)[C@@]3(F)[C@@H](O)C[C@]2(C)[C@@]1(O)C(=O)CO [dexamethasone],EST expression in PXR−/− mice,"[1]; PXR−/− mice, liver",still induced
same,EST mRNA induction in human hepatocytes,EST,increased induction
"CC(=O)[C@H]1[C@H](C#N)C[C@H]2[C@@H]3CC=C4C[C@@H](O)CC[C@]4(C)[C@H]3CC[C@@]21C [PCN, pregnenolone-16alpha-carbonitrile]",CYP3A expression,CYP3A (PXR target gene),induced
"C[C@]12CC[C@@H]3c4ccc(O)cc4CC[C@H]3[C@@H]1CC[C@@H]2O [E2, 17β-estradiol]",uterine BrdU labeling,"[2]; ovariectomized wild type mice, E2 25 μg/mouse s.c.",increased
same,"mRNA expression of Pgr, c-fos and Igf-1 in uterus",[3]; [6],induced
same,mRNA expression of Txnip in uterus,[3]; [6],suppressed
same,"uterotropic effect (uterine enlargement, water imbibition)",uterus,typical uterine enlargement
